# Test results: patent publication US20240350597A1, “PROTEASE INHIBITORS” (University College Dublin, priority 2023, published 2024)
# Tested on: SARS-CoV-2 (WT, D614G)
# Type: cell-based
# Conditions: 50 µM
substance,measurement,value
alpha-1-antitrypsin [A1AT],inhibition of SARS-CoV-2 replication / infection,45%
